From article PMC9967645, “OAT3 Participates in Drug–Drug Interaction between Bentysrepinine and Entecavir through Interactions with M8—A Metabolite of Bentysrepinine—In Rats and Humans In Vitro” (Molecules, 2023)
Where “and” joins values, the source holds several entries; their conditions need not be identical. Identical values can stand only once. Like-named read-outs stand apart in the source and are kept apart here.

Columns and labels:
[1] = Renal excretion study in rats (cumulative urinary excretion, renal clearance); format: in vivo, Sprague–Dawley (SD) rats; conditions: for CL renal: Sprague-Dawley, rat, urine, iv, read-out: CLR (renal clearance) (converted)
Method: To investigate the effects of PRO on the renal excretion of Y101 and its metabolites, rats received an intravenous dose of Y101 (25 mg/kg) or Y101 + PRO (25 mg/kg for Y101 and 100 mg/kg for PRO) via the caudal vein. In order to verify the DDI between Y101 and ETV in renal excretion, rats received an intravenous dose of Y101 (25 mg/kg) and/or ETV (0.06 mg/kg) by caudal vein.
[…] Subsequently, urine samples were stored at −70 °C until analysis. The cumulative urinary excretion and renal clearance (CLR) were calculated as previously described.
Biological samples were prepared as previously described.

rat kidney slices = assay: In vitro uptake assay in kidney slices; format: in vitro ADME; conditions: for time and temperature dependence of uptake in kidney slices: 37 °C vs 4 °C, M9 1.0 µM, 5 to 30 min
Method: The renal cortex was cut into 300 µm slices with a ZQP-86 tissue slicer (Shanghai Zhisun Equipment Co., Ltd., Shanghai, China; surface area 0.15 cm^2). […] Next, the kidney slices were prepared as previously described. Two slices per well were placed into 37 °C buffer filled with oxygen for pre-incubation for 3 min and then gently moved into a 24-well cell culture plate containing 1 mL oxygenated buffer at 4 °C or 37 °C. The uptakes of ETV (10 µM), Y101 (2.0 µM), M8 (5.0 µM) and M9 (1.0 µM) were measured at 5, 10, 15 and 30 min after the treatment, respectively. […] Following incubation at the designated time, kidney slices were collected, rinsed with ice-cold buffer three times, and dried on filter paper. After weighing and homogenization (IKA-T 10 homogenizer; IKA, Staufen, Germany), the concentrations of Y101, M8, M9 and ETV of kidney slice homogenates were determined as in the description below.
(§1) Biological samples were prepared as previously described. Aliquots (50 µL) of urine, plasma, kidney homogenates, or cell lysates were individually mixed with 150 µL methanol and 50 µL working solution of internal standard (acetaminophen or bestatin), followed by vortexing for 1 min and centrifuging at 13,800 g for 10 min. […] The resulting supernatant (1 µL) was subjected to LC-MS/MS for the assessment of Y101, M8, M9 and ETV, respectively. […] The concentrations of ETV, Y101, M8 and M9 were determined by an AB QTRAP 5500 LC–MS/MS System (Foster City, CA, USA) as previously described. Chromatographic separation was achieved on an Infinitylab Poroshell 120 EC-C18 (50 mm × 2.1 mm, 2.7 µm, Agilent Technology Inc., CA, USA) at 40 °C. The mobile phase consisted of formic acid-acetonitrile (0.05:100, v/v) and a mixture of 1 mmol-ammonium acetate-acetonitrile-formic acid (95:5:0.05, v/v/v) at a flow rate of 0.3 mL/min. […] Analyst1.5.2 software was used for data processing and analysis.

hOAT3 = biological target: T1, hOAT3 (Homo sapiens, UniProt Q8TCC7); assay: In vitro uptake assay in hOAT3-HEK293 cells; conditions: M8 10 µM; for inhibition of the uptake of ETV in hOAT3-HEK293 cells / substrate of hOAT3 (uptake in hOAT3-HEK293 vs mock-HEK293 cells): Y101 2.0 µM; for substrate of hOAT3 (uptake in hOAT3-HEK293 vs mock-HEK293 cells): ES 10 µM
T1 sequence (Q8TCC7 1-542): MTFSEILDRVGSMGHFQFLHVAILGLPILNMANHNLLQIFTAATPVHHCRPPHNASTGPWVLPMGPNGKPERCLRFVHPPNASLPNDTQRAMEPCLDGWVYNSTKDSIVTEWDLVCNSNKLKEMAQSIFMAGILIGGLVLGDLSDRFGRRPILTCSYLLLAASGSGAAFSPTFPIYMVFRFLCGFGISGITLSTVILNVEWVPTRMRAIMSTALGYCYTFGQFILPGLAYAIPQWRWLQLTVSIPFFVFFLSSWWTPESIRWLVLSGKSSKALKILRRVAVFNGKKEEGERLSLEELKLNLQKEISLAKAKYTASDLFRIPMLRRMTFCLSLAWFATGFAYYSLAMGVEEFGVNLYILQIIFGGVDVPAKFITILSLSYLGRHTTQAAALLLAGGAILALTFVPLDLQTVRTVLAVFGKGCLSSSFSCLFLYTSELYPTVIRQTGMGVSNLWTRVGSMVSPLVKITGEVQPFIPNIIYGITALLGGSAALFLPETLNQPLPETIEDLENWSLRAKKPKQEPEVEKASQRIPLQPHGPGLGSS
Method: The hOAT1-HEK293, hOAT3-HEK293 and mock cells were cultured in Dulbecco modified Eagle medium (DMEM) containing 10% fetal bovine serum (FBS) and 1% penicillin/streptomycin in an atmosphere of 5% CO2 air at 37 °C. The HEK293 cells were plated on 24-well plates at a density of 5 × 10^5 cells/well. […] Uptake assay was initiated by adding 1 mL of the transporter buffer containing Y101, M8, ETV or probe substrate. Following incubation with gentle shaking, the uptake was terminated at designated time by removing the transporter buffer and washing cells three times with 1 mL of ice-cold HBSS. Next, substrates of Y101, M8, ETV, PAH and ES in cell monolayer were released by lysing the cells with 0.3 mL of 0.1% Triton X-100 for 2 h and determined by liquid chromatography–tandem mass spectrometry (LC–MS/MS). In the time-course uptake assay, Y101 (2.0 µM) and M8 (10 µM) in the presence or absence of PRO (100 µM) were measured in hOAT1-HEK293, hOAT3-HEK293 and mock cells. The concentration-dependent uptake of M8 was determined in hOAT3-HEK293 cells, and incubation time (5 min) was optimized. The uptake of M8 (10 µM) with or without ETV was examined in hOAT3-HEK293 cells. The uptake of ETV (10 µM) with or without Y101 or M8 was also measured in hOAT1-HEK293 and hOAT3-HEK293 cells, respectively. Furthermore, PAH and ES at concentrations of 10 µM were used as positive control in hOAT1-HEK293 and hOAT3-HEK293 cells, respectively. Protein concentrations were measured by the bicinchoninic acid procedure (Solarbio, Beijing, China) using bovine serum albumin as the standard.
as §1

[2] = 25 mg/kg, i.v. Y101 25 mg/kg + PRO 100 mg/kg
[3] = 25 mg/kg, i.v. Y101 25 mg/kg alone (Table 1, control of PRO study)
[4] = 25 mg/kg, i.v. Y101 25 mg/kg alone (Table 2, control of ETV study)
[5] = i.v. Y101 25 mg/kg + ETV 0.06 mg/kg
[6] = i.v. Y101 25 mg/kg + ETV 0.06 mg/kg, at 30 h post-dose
[7] = i.v. Y101 25 mg/kg + PRO 100 mg/kg, 0 to 48 h
[8] = ETV 10 µM, Y101 2.0 µM, M8 5.0 µM

SMILES | CL renal [1, 2] | CL renal [1, 3] | CL renal [1, 4] | CL renal [1, 5] | cumulative excretion in the urine [1, 6] | cumulative urinary excretion [1, 7] | cumulative urinary excretion ([1]; i.v. Y101 25 mg/kg alone, at 48 h post-dose, 25 mg/kg) | time and temperature dependence of uptake in kidney slices (rat kidney slices; Y101 2.0 µM, M8 5.0 µM) | effect on the uptake of ETV in kidney slices (rat kidney slices; [8]) | inhibition of the uptake of ETV in hOAT3-HEK293 cells (hOAT3; ETV 10 µM) | substrate of hOAT3 (uptake in hOAT3-HEK293 vs mock-HEK293 cells) (hOAT3) | cumulative urinary excretion ([1]; i.v. Y101 25 mg/kg alone, at 48 h post-dose) | CL renal ([1]; 0.06 mg/kg, i.v. ETV 0.06 mg/kg alone) | cumulative excretion in urine ([1]; i.v. ETV 0.06 mg/kg alone, at 30 h post-dose) | inhibition of the uptake of M8 in kidney slices (rat kidney slices; M8 5.0 µM, PCG 0.2 and 0.5 mM, PRO 0.1 mM, PAH 0.2 and 0.5 mM, TEA 0.2 mM, 10 min, ETV 10 µM) | inhibition of the uptake of Y101 in kidney slices (rat kidney slices; Y101 2.0 µM, PCG 0.2 and 0.5 mM, PRO 0.1 mM, PAH 0.2 and 0.5 mM, TEA 0.2 mM, 10 min, ETV 10 µM) | inhibition of the uptake of M8 in hOAT3-HEK293 cells (hOAT3; PRO 100 µM, ETV 10 µM)
CN(C)CCOc1ccc(C[C@H](NC(=O)c2ccccc2)C(=O)N[C@H](CO)Cc2ccccc2)cc1.Cl [Y101, N-[N-benzoyl-O-(2-dimethylaminoethyl)-l-tyrosyl]-l-phenylalaninol hydrochloride] | 5.28 mL/min/kg | 6.1 mL/min/kg | 7.18 mL/min/kg | 7.93 mL/min/kg | 4.48 ± 0.742 % of the dose | 3.59 ± 0.526% | 4.16 ± 0.843 % of the dose and 4.16 % of the dose | time- and temperature-dependent | not affected | not inhibited | not a substrate of hOAT1 or hOAT3 | – | – | – | – | – | –
CN(C)CCOc1ccc(CC(NC(=O)c2ccccc2)C(=O)O)cc1 (stereo not shown) [M8] | 82.7 mL/min/kg | 100 mL/min/kg | 115 mL/min/kg | 106 mL/min/kg | 59.7 ± 5.78 % of the dose | 56.3 ± 3.00% | – | temperature-dependent | not affected | not inhibited | substrate of hOAT3 | 68.1 ± 6.97 % of the dose and 68.1 % of the dose | – | – | – | – | –
C=C1[C@H](CO)[C@@H](O)C[C@@H]1n1cnc2c(=O)[nH]c(N)nc21 [ETV, entecavir] | – | – | – | 33.3 mL/min/kg | – | – | – | – | – | – | – | – | 36.2 mL/min/kg | 33.4 ± 1.55% | significantly inhibited the uptake of M8 | did not show any inhibitory effects | inhibited the uptake of M8
